From patent US20200240995A1, “KDAC VARIANTS AND USES THEREOF” (Max-Planck-Gesellschaft Zur Forderung Der Wissenschaften …, priority 2017, published 2020)

Key:
[1] = target: T1, SirT2 (Homo sapiens, UniProt Q8IXJ6); assay: FLuc K529ac-based KDAC assay, inhibition or activation of SirT2 deacetylation
T1 sequence (Q8IXJ6 56-356): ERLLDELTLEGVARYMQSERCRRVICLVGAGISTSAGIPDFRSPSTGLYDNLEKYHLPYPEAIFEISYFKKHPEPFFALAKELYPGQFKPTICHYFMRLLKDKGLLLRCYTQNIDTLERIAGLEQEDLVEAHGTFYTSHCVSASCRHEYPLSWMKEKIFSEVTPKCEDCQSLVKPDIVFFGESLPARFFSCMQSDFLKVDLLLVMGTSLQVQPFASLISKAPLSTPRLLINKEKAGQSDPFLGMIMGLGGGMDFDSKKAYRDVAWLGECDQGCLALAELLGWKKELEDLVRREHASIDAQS

[2] = system: KDACs; assay: FLuc K529ac activation by different KDACs; format: biochemical; settings: purified FLuc K529ac
Method: FIG. 7: FLuc K529ac activation by different KDACs. Sirtuins were used at 20 μg/ml, while HDAC8 concentration was 10 mg/ml with tenfold higher FLuc K529ac. All error bars are standard deviations of triplicates.
It was tested whether purified FLuc K529ac can be used to quantify KDAC activity by incubating it with various different KDACs (FIG. 7). Prior to treatment with a KDAC the enzyme produced very little bioluminescence. After incubation with various KDACs the luminescence increased up to 130 fold.

| IC50 [1] [µM] | Compound | Luminescence increase after incubation with various KDACs [2] |
| --- | --- | --- |
| 5.5 | Oc1cc(O)cc(/C=C/c2ccc(O)c(O)c2)c1 [Compound 2, piceatannol] |  |
|  | FLuc K529ac: Firefly luciferase with N(ε)-acetyl-lysine in place of K529, reporter substrate for KDACs | up to 130 fold |
